{
  "source": "patent US20060142321A1",
  "about": "“5-HT7 receptor antagonists” (priority 2004, published 2006)",
  "target": "T1, Cloned Human Serotonin Receptor, Subtype 7 (h5HT7) (Homo sapiens, UniProt P34969)",
  "T1 construct": "purchased PerkinElmer 6120512; host or cells: CHO cells (membranes coated on Basic FlashPlate SMP200)",
  "T1 sequence (P34969 whole entry)": "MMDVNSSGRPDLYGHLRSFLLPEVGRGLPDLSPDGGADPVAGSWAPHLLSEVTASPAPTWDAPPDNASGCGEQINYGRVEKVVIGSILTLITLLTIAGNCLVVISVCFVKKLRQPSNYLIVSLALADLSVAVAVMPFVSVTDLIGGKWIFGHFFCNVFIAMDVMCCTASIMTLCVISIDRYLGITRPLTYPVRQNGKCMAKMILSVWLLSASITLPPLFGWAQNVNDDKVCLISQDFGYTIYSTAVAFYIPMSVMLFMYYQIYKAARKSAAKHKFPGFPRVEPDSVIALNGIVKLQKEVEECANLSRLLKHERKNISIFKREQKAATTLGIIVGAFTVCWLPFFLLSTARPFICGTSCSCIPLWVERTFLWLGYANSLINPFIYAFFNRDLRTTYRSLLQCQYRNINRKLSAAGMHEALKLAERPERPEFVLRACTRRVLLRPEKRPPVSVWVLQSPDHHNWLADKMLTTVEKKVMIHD",
  "test": "Radioligand binding assay, [125I]LSD, cloned h5HT7 expressed in CHO cells (Flashplate)",
  "conditions": "[125I]LSD 0.82 nM, room temperature, 240 minutes, read-out: 5-HT7 IC-50",
  "description": "Biological Assays Radioligand Binding\nRadioligand binding assays were performed using the Cloned Human Serotonin Receptor, Subtype 7 (h5HT7), expressed in CHO cells, coated on Flashplate (Basic FlashPlate Cat.: SMP200) from PerkinElmer (Cat.: 6120512). The protocol assay was essentially the recommended protocol in the Technical Data Sheet by PerkinEmer Life and Analytical Sciences. The Mass membrane protein/well was typically 12 μg and the Receptor/well was about 9-10 fmoles. The Flashplate were let equilibrate at room temperature for one hour before the addition of the components of the assay mixture. The binding buffer was: 50 mM Tris-HCl, pH 7.4, containing 10 mM MgCl2, 0.5 mM EDTA and 0.5% BSA. The radioligand was [^125I]LSD at a final concentration of 0.82 nM. Nonspecific binding was determined with 50 μM of Clozapine. The assay volume was 25 μl. TopSeal-A were applied onto Flashplate microplates and they were incubated at room temperature for 240 minutes in darkness. The radioactivity were quantified by liquid scintillation spectrophotometry (Wallac 1450 Microbeta Trilux) with a count delay of 4 minutes prior to counting and a counting time of 30 seconds per well. Competition binding data were analyzed by using the LIGAND program (Munson and Rodbard, LIGAND: A versatile, computerized approach for characterization of ligand-binding systems. Anal. Biochem. 107: 220-239, 1980) and assays were performed in triplicate determinations for each point.",
  "note": "Structures can show the parent of a compound that is named as a salt.",
  "data": [
    {"smiles": "Cc1cc(S(=O)(=O)NCCCCN2CCc3cccc4c3C2CC4)c(C)cc1Cl", "note": "(stereo not shown) [Compound 7, 4-Chloro-2,5-dimethyl-N-[4-(2,2a,4-5-tetrahydro-1H-3-aza-acenaphthylen-3-yl)-butyl]-benzenesulfonamide hydrochloride]", "values": [
      {"measurement": "IC50", "result": 79.2, "unit": "nM"}
    ]},
    {"smiles": "O=S(=O)(NCCCN1CCc2cccc3c2C1CC3)c1cc(Cl)ccc1Cl", "note": "(stereo not shown) [Compound 15, 2,5-Dichloro-N-[3-(2,2a,4-5-tetrahydro-1H-3-aza-acenaphthylen-3-yl)-propyl]-benzenesulfonamide hydrochloride]", "values": [
      {"measurement": "IC50", "result": 142, "unit": "nM"}
    ]},
    {"smiles": "COc1cc2c3c(c1OC)CCC3N(CCCNS(=O)(=O)c1cc(Cl)ccc1Cl)CC2", "note": "(stereo not shown) [Compound 56, 2,5-Dichloro-N-[3-(7,8-dimethoxy-2,2a,4-5-tetrahydro-1H-3-aza-acenaphthylen-3-yl)-propyl]-benzene sulfonamide hydrochloride]", "values": [
      {"measurement": "IC50", "result": 156, "unit": "nM"}
    ]},
    {"smiles": "COc1cc2c3c(c1OC)CCC3N(CCCNS(=O)(=O)c1cc(F)c(F)cc1Cl)CC2", "note": "(stereo not shown) [Compound 58, 2-Chloro-N-[3-(7,8-dimethoxy-2,2a,4-5-tetrahydro-1H-3-aza-acenaphthylen-3-yl)-propyl]-4,5-difluoro-benzene sulfonamide hydrochloride]", "values": [
      {"measurement": "IC50", "result": 189, "unit": "nM"}
    ]}
  ]
}
